Measured values taken from patent US20030162788A1, “Combination of MTP inhibitors or apoB-secretion inhibitors with fibrates for use as pharmaceuticals” (Boehringer Ingelheim Pharma KG, priority 2002, published 2003).
Blank lines part the entries; values can stand above or below the compound they belong to.

Tests used:
[1] = system: fa/fa rats; assay: Activities of liver enzymes (ALT, AST, GLDH) in the plasma of fa/fa rats (liver toxicity); type: in vivo, rat; details: for ALT [U/I], MW ± SEM / AST [U/I], MW ± SEM: plasma, fenofibrate 100 mg/kg twice a day (eight times)
Source text: The horizontal line in the diagram indicates three times the level in the control group and is interpreted as the threshold value for a clearly toxic side effect.).

[2] = system: fa/fa rats; assay: Cholesterol and triglycerides in the plasma of hyperlipaemic fa/fa rats after oral treatment; details: for lowering of cholesterol in the plasma compared with the control group / lowering of triglycerides in the plasma compared with the control group: Example A, female fa/fa rats 33 weeks old, MTP inhibitor 1 mg/kg once a day (four times), bezafibrate 100 mg/kg twice a day (eight times), blood 24 hours after last MTP inhibitor dose or 15 hours after last fibrate dose
Experimental: The effectiveness of the combination of an MTP inhibitor with a fibrate and the effect on hepatic steatosis and liver toxicity can be tested in vivo as follows. Hyperlipaemic rats (e.g. of the rat strain fa/fa) are given the active substances as a suspension in 0.45% NaCl and 5% polyethyleneglycol 400 by oral route using an oesophageal tube (5 ml/kg of body weight). The substances may be given once or several times a day for a period of 4 days, or alternatively over a longer period. The day after the last dose, blood samples are taken by puncturing the retroorbital venous plexus and plasma is prepared. The concentrations of cholesterol and triglycerides in the plasma and the activities of the liver enzymes (e.g. ALT, AST, GLDH) are determined by well-known methods of clinical chemistry. These substrates and enzymes in the plasma may be measured for example with a HITACHI 917 Automatic Analyzer using reagents supplied by Roche Diagnostics (Mannheim) in accordance with the following procedures laid down by Roche Diagnostics:
cholesterol: BM/HITACHI 917, Boehringer Mannheim System No. 1 491 458
triglycerides: BM/HITACHI 917, Boehringer Mannheim System No. 1 730 711.
Female fa/fa rats 33 weeks old were either treated four times with an MTP inhibitor (given orally once a day at 7 a.m.) or treated eight times with a fibrate (given twice a day by oral route at 7 a.m. and 4 p.m.) A third group were given both the MTP inhibitor and the fibrate. The MTP inhibitor was 9-[4-[4-[2-(4-trifluoromethylphenyl)benzoylamino]piperidin-1-yl]butyl]-N-(2,2,2-trifluoro-ethyl)-9H-fluorene-9-carboxamide in a dosage of 1 mg/kg. The fibrate was bezafibrate in a dosage of 100 mg/kg. 24 hours after the last dose of the MTP inhibitor or 15 hours after the last dose of the fibrate blood samples were taken from the animals and the cholesterol, triglycerides and liver enzymes in the plasma were measured.
Male fa/fa rats 32 weeks old were either treated four times with an MTP inhibitor (given orally once a day between about 7 and 8 a.m.) or treated eight times with a fibrate (given twice a day by oral route between about 7 and 8 a.m. and at 4 p.m.) Another group were given both the MTP inhibitor and the fibrate. […] The fibrate was fenofibrate in a dosage of 100 mg/kg. 24 hours after the last dose of the MTP inhibitor or 15 hours after the last dose of fenofibrate, blood was taken from the animals and the levels of cholesterol, triglycerides and liver enzymes in the plasma were measured.
Male fa/fa rats 33 weeks old were either treated four times with an MTP inhibitor (given orally once a day between about 7 and 8 a.m.) or treated eight times with a fibrate (given twice a day by oral route between about 7 and 8 a.m. and at 4 p.m.) Another group were given both the MTP inhibitor and the fibrate. […] The fibrate was fenofibrate in a dosage of 100 mg/kg. 24 hours after the last dose of the MTP inhibitor or 15 hours after the last dose of fenofibrate, blood was taken from the animals and the levels of cholesterol, triglycerides and liver enzymes in the plasma were measured.

[3] = system: fa/fa rats; assay: Hepatic steatosis: lipid content (triglycerides, free fatty acids) in the liver of fa/fa rats; type: in vivo, rat; details: Example B; female fa/fa rats 38 weeks old; oral; MTP inhibitor 0.3 mg/kg once a day (four times); livers removed 24 hours after last dose
Experimental: In addition, the liver may be removed in order to determine the hepatic steatosis by measuring the lipid content (triglycerides, free fatty acids, cholesterol) in this organ. To do this, 200 mg of liver are homogenised after the addition of 2 ml of isopropanol and extracted for 10 min with shaking. The extract is centrifuged for 10 min at 4° C. and 4000 rpm and one aliquot of the supernatant is used to determine the lipid parameters. The lipids in the liver are measured using commercially available test kits following the manufacturer's instructions (for triglycerides: Triglycerid-Duo S made by BIOMED Labordiagnostik GmbH, Oberschleiβheim; for cholesterol: Cholesterin-Duo S made by BIOMED Labordiagnostik GmbH, Oberschleiβheim; for free fatty acids: NEFA C made by Wako Chemicals GmbH, Neuss).
The MTP inhibitor leads to an increase in the triglycerides and the free fatty acids in the liver (FIGS. 3a and 3b). By combining it with the fibrate, the lipid accumulation caused by the MTP inhibitor is lowered by about 50% (triglycerides in the liver) or by about 80% (free fatty acids in the liver).

[4] = Example A, female fa/fa rats 33 weeks old, oral, MTP inhibitor 1 mg/kg once a day (four times)
[5] = Example D, male fa/fa rats 33 weeks old, compound (a) 3 mg/kg oral once a day
[6] = Example D, male fa/fa rats 33 weeks old, oral, compound (a) 3 mg/kg once a day (four times)
[7] = Example D, male fa/fa rats 33 weeks old, compound (a) 3 mg/kg once a day, fenofibrate 100 mg/kg twice a day
[8] = Example C, male fa/fa rats 32 weeks old, compound (c) 10 mg/kg oral once a day
[9] = Example C, male fa/fa rats 32 weeks old, oral, compound (c) 10 mg/kg once a day (four times)
[10] = Example C, male fa/fa rats 32 weeks old, compound (c) 10 mg/kg once a day, fenofibrate 100 mg/kg twice a day
[11] = Example D, male fa/fa rats 33 weeks old, fenofibrate 100 mg/kg twice a day

free fatty acids in the liver [3]: increase
triglycerides in the liver [3]: increase
Structure (SMILES): O=C(NC1CCN(CCCCC2(C(=O)NCC(F)(F)F)c3ccccc3-c3ccccc32)CC1)c1ccccc1-c1ccc(C(F)(F)F)cc1 [9-[4-[4-[2-(4-trifluoromethylphenyl)benzoylamino]piperidin-1-yl]butyl]-N-(2,2,2-trifluoro-ethyl)-9H-fluorene-9-carboxamide]
increase in the ALT activity in the blood plasma compared with the control group [1, 4]: 5.2 fold
increase in the GLDH activity in the blood plasma compared with the control group [1, 4]: 7.7 fold
lowering of cholesterol in the plasma compared with the control group [2]: 29%
lowering of triglycerides in the plasma compared with the control group [2]: 84%

Structure (SMILES): Cn1cc(NC(=O)c2ccccc2-c2ccc(C(F)(F)F)cc2)cc1C(=O)NCC#Cc1ccc(-c2ccccc2)cc1 [Compound (a), N-[3-(Biphenyl-4-yl)-prop-2-ynyl]-4-(4′-trifluoromethylbiphenyl-2-carbonylamino)-1-methyl-pyrrole-2-carboxylic acid amide]
increase in the activity of ALT in the plasma [1, 5]: 5.1 fold
increase in the activity of AST in the plasma [1, 5]: 6.7 fold
ALT [U/I], MW ± SEM [1, 6]: 232.8 ± 67.8 U/I
AST [U/I], MW ± SEM [1, 6]: 218.4 ± 57.1 U/I
reduction of cholesterol in the plasma compared with the control group [2, 7]: 26%
reduction of triglycerides in the plasma compared with the control group [2, 7]: 76%

Structure (SMILES): Cn1cc(NC(=O)c2ccccc2-c2ccc(C(F)(F)F)cc2)cc1C(=O)NCc1ccc(N2CCC3(CCCCC3)CC2)cc1 [Compound (c), N-[4-(3-Aza-spiro[5.5]undec-3-yl)-phenylmethyl]-4-(4′-trifluoromethylbiphenyl-2-carbonylamino)-1-methyl-pyrrole-2-carboxylic acid amide]
increase in the activity of ALT in the plasma [1, 8]: 3.6 fold
increase in the activity of AST in the plasma [1, 8]: 4.5 fold
ALT [U/I], MW ± SEM [1, 9]: 232.9 ± 40.6 U/I
AST [U/I], MW ± SEM [1, 9]: 232.7 ± 34.2 U/I
reduction of cholesterol in the plasma compared with the control group [2, 10]: 58%
reduction of triglycerides in the plasma compared with the control group [2, 10]: 94%

Structure (SMILES): CC(C)OC(=O)C(C)(C)Oc1ccc(C(=O)c2ccc(Cl)cc2)cc1 [Fenofibrate, fenofibrate]
ALT [U/I], MW ± SEM [1, 9]: 47.0 ± 4.9 U/I
AST [U/I], MW ± SEM [1, 9]: 30.3 ± 2.7 U/I
ALT [U/I], MW ± SEM [1, 6]: 44.7 ± 5.3 U/I
AST [U/I], MW ± SEM [1, 6]: 33.5 ± 3.7 U/I
reduction of cholesterol in the plasma compared with the control group [2, 10]: 15%
reduction of triglycerides in the plasma compared with the control group [2, 10]: 20%
increase of cholesterol in the plasma compared with the control group [2, 11]: 10%
increase of triglycerides in the plasma compared with the control group [2, 11]: 38%

Structure (SMILES): CC(C)(Oc1ccc(CCNC(=O)c2ccc(Cl)cc2)cc1)C(=O)O [bezafibrate]
lowering of cholesterol in the plasma compared with the control group [2]: 47%
lowering of triglycerides in the plasma compared with the control group [2]: 56%
